Source: patent publication US8193238B2, “Inhibition of microtubule protrusion in cancer cells” (University of Maryland, Baltimore, priority 2006, dated 2012)
“Also recorded” adds a separate entry of the source.

Experiments:
EpH4 cells = experiment: Protrusions in suspended cells treated with cytoskeletal inhibitors (EpH4); assay type: cell-based, mouse; conditions: EpH4, 15 minutes of suspension; Latrunculin-A 5 μM, Colchicine 1 μM
Experimental: (§1) In FIG. 2A, after 15 minutes of suspension, protrusions in EpH4 and MCF10A cells are quite small (Control, white arrows). […] In FIG. 2B, populations of live, suspended cells were scored blindly for two or more protrusions longer than the cell radius. Each bar represents the mean+S.D. for three experiments in which at least 100 single cells were counted.
EpH4 cells were suspended in either DMEM (Control) or media containing 5 μM Latrunculin-A (LA), 1 μM Colchicine or the combination of both drugs for 30 minutes. Cells were then spun onto glass coverslips and fluorescently stained for α-tubulin (green) and polymerized actin (red). Protrusions that are difficult to see by phase contrast are easily discernible with immunostaining for α-tubulin (white arrows). Protrusions contain little polymerized actin, except at points of concentration, which are often at the end (arrowhead).
EpH4 and B19 cells were suspended over 2% agarose coated plates to prevent attachment in either serum-free DMEM or media containing. Latrunculin-A (5 μM) to enhance protrusions. For co-staining of α-tubulin and actin, suspended cells were then centrifuged onto poly-L-lysine coated coverslips (280 g×5 min), fixed in 3.7% formaldehyde in PBS for 10 min, and permeablized with 0.1% Triton X-100 in PBS. Adhered cells were then stained for 1 hr at room temperature using FITC-conjugated anti-α-tubulin (1:200; Sigma), Alexa-594 phalloidin (1:100; Molecular Probes), and Hoescht 33342 (1:5000; Sigma).
(§2) In order to initially characterize the cytoskeletal mechanism underlying these protrusions, suspended cells were treated with inhibitors of actin and tubulin polymerization (FIG. 2). After 15 minutes of suspension, the protrusions in untreated EpH4 or MCF10A cells remain fairly short (FIG. 2, white arrows). These early protrusions can often be difficult to detect with phase-contrast microscopy, due to interfering light refraction from the plasma membrane. […] Protrusions were more easily visible with immunofluorescence than phase contrast microscopy (FIG. 3, white arrows). Although actin filament staining was generally low along the length of the protrusion, dense points of actin were often found at the end of protrusions (FIG. 3, arrowheads).

[1] = test system: chicken erythrocytes from day 2 embryos; conditions: cited from earlier work
MCF10A cells [2] = experiment: Protrusions in suspended cells treated with cytoskeletal inhibitors (MCF10A); assay type: cell-based, human; conditions: MCF10A, 15 minutes of suspension; Latrunculin-A 5 μM, Colchicine 1 μM
Experimental: as §1, §2
The nontumorigenic human mammary epithelial cell line (MCF10A) or the indicated human breast tumor cell lines were grown in suspension for 30-60 minutes, and protrusions were counted in random fields with phase-contrast microscopy. Values represent the mean±S.D. of three experiments in which at least 100 cells were counted. […] This effect was most apparent in the highly metastatic but exemplary Bt-474 and MDA-MB-231 cells (pictured, black arrows). The exemplary MCF10A cells show far fewer and shorter protrusions at the same time point (pictured, white arrows). Such protrusions are not observed in attached cells.

[3] = test system: detached mammary epithelial cells; experiment: Protrusions of detached mammary epithelial cells, general statements; assay type: cell-based, human and mouse
Experimental: Time-lapse video microscopy of detached mammary epithelial cells detected the extension of long, dynamic protrusions of the plasma membrane, and the present inventors have characterized the cytoskeletal mechanism underlying this novel observation. […] This response may be relatively short-lived, in specific embodiments, since mammary epithelial cells die by apoptosis within about 24 hours in suspension. However, cell lines that resist apoptosis through expression of either Bcl-2 or Bcl-xL will persistently form protrusions. Previous studies by the inventors indicate that such apoptotically-resistant cell lines will not form tumors in mice and lie dormant in distant tissues, in specific embodiments of the invention. […] These microtubule processes can extend more than 3 times the cell diameter, and undergo a rapid probing motion more than once per second. Formation of these microtubule protrusions is necessary for efficient cell-cell and cell-substratum attachment. In particular embodiments of the invention, this inherent microtubule response in detached mammary epithelial cells provides at least some of the invasive characteristics of breast cancer, independent of any tumor-specific genetic alteration, for example.
Breast tumor cells enter the bloodstream long before the development of clinically evident metastasis. However, the early presence of such bloodborne cells predicts poor patient outcome. Nearly 90% of human breast tumors arise as carcinomas from mammary epithelial cells, so it is important to characterize how these cells respond to the detached conditions that they would experience in the bloodstream. In the present invention, mammary epithelial cell lines produce long and dynamic protrusions of the plasma membrane when detached. Although human and mouse mammary epithelial cell lines die by apoptosis within 16 hours of detachment, this protrusive response persists for days in cells overexpressing either Bcl-2 or Bcl-xL, for example. […] Since bloodborne metastasis depends on both cell-cell and cell-matrix attachment, microtubule-based protrusions in detached mammary epithelial cells provide a novel target that could influence the metastatic spread of breast tumors.
Detachment-induced increases in Glu-tubulin could promote plasma membrane protrusions of microtubules by preventing efficient capture at the actin cortex. […] Therefore, our current model is that detachment increases stabilized microtubules enriched in Glu-tubulin, while decreased actin polymerization simply promotes extension of these microtubule protrusions.

MCF10A cells [4] = experiment: Chemical inhibition of Latrunculin-A-enhanced microtubule protrusions in suspended cells; assay type: cell-based, human
Experimental: MCF10A cells were placed into suspension in the presence of the indicated chemical inhibitors targeted at specific signaling pathways or the corresponding vehicle controls. Cells were then treated with the actin polymerization inhibitor, Latrunculin-A (LA, 5 μM) for one hour to enhance protrusions. […] Thus, protrusions can be reduced by chemical inhibition of specific signaling proteins.

cells = assay type: cell-based; conditions: indicated concentrations, 2 hours
Bt-474 = experiment: GFP-membrane protrusion counts after local anesthetics (Bt-474); assay type: cell-based, human; conditions: Bt-474, GFP-membrane; Lidocaine 50 mM, Tetracaine 2.5 mM; with or without LA
Experimental: (§3) Cells were then suspended in DMEM culture media with or without […] Latrunculin-A (LA) to induce protrusions by depolymerizing actin. […] Bars represent mean+S.D. of at least three blindly counted experiments.

MDA-231 = experiment: GFP-membrane protrusion counts after local anesthetics (MDA-231); assay type: cell-based, human; conditions: MDA-231, GFP-membrane; Lidocaine 50 mM, Tetracaine 2.5 mM; with or without LA
Experimental: as §3

MCF10A cells [5] = conditions: MCF10A treated two hours
metastasis = conditions: known, via unclear mechanism; cited from earlier work

In the case of C=C1[C@@H](C)[C@H]2[C@H](Cc3ccccc3)NC(=O)[C@]23[C@H](OC(C)=O)/C=C/[C@@](C)(O)C(=O)[C@@H](C)C/C=C/[C@H]3[C@@H]1O [Cytochalasin-D], the protrusions (EpH4 cells) is given as “increased protrusions”, the microtubule processes [1] is given as “promotes microtubule processes” and the protrusions (MCF10A cells [2]) is given as “increased protrusions”. The protrusions [3] was “enhanced; also recorded: promotes the extension of microtubule protrusions”.

For Cn1sc(=O)n(Cc2ccccc2)c1=O [TDZD-8], the protrusions (MCF10A cells [4]; MCF10A in suspension, then LA 5 μM one hour, sodium orthovanadate 1 mM, S-Trityl-L-Cysteine 100 μM, TDZD-8 20 μM) was “strongest inhibition of protrusions”, the protrusion frequency (MCF10A cells [4]; one hour of treatment) was “reduce protrusion frequency significantly” and the cell viability (cells) was “did not reduce cell viability significantly”.

In the case of CCCCNc1ccc(C(=O)OCCN(C)C)cc1 [Tetracaine], the protrusions (Bt-474) is reported as “inhibited significantly”, the protrusions (MDA-231) is reported as “inhibited significantly” and the “concentration showing significant cell toxicity” value (MCF10A cells [5]) is reported as no less than 3000 µM. For the same molecule, the cell toxicity (MCF10A cells [5]; Lidocaine up to 50 mM) was “cytotoxic” and the metastasis (metastasis) was “reduce metastasis”.
